Patent US12528792B2, “Sulfonamide compounds and the use thereof in the treatment of cancer” (TROBIO THERAPEUTICS PTY LTD, priority 2019, dated 2026)
Where two headings read alike, the source gives them in different places.

What was measured:
Type in all cases: cell-based
[1] = test system: A2780 ovarian cancer cells; assay: In vitro growth inhibition assay, Alamar Blue, single agent IC50; conditions: Homo sapiens
Procedure: (§1) In vitro growth inhibition assays were performed as technical triplicate in two independent experiments and cell viability was assessed by Alamar Blue assay readout. Briefly, cells in logarithmic phase growth were seeded in 384-well plates in a 50 μL/well assay volume. Cells were seeded at 1,200 cells/well using a Multidrop 384 (Thermo Scientific) and allowed to adhere at 37° C. with 5% CO2, in a humidified atmosphere (LiCONIC incubator). After 24 hours incubation, test compounds, positive control (20 μM Thonzonium bromide, 100% kill) and vehicle only (0.4% DMSO) were added into wells of each assay plate using a Tecan HP D300 Digital Dispenser in technical triplicate under minimum light. Following 72 hours drug exposure, metabolic activity was detected by addition of 10% (v/v) Alamar Blue reagent to each assay well using a Multidrop Cambi (Thermo Scientific) and determined by measurement of fluorescence intensity (excitation 555 nm, emission 585 nm) using an EnSpire (Perkin Elmer) plate reader. Readings were performed at 0 hour (background) and after 6 hours alamar blue incubation at 37° C.
Each drug was tested as a 10-point concentration series with two-fold serial dilutions of each drug. The concentration series for compounds 6 and 8 was 100, 50, 25, 12.5, 6.25, 3.125, 1.563, 0.781, 0.391 and 0.195 μM and for compounds 24, 43 and 48 was 50, 25, 12.5, 6.25, 3.125, 1.563, 0.781, 0.391, 0.195 and 0.098 μM for the two independent experiments. The concentration series for vinorelbine and paclitaxel was 100, 50, 25, 12.5, 6.25, 3.125, 1.5625, 0.781, 0.391 and 0.195 nM. Thonzonium bromide (20 μM) and 0.4% DMSO were used as positive and vehicle controls, respectively. The IC50 value was calculated by derivation of the best-fit line using a sigmoidal dose response model (Activity Base Software Suite, IDES).
Activity Base software suite (IDES, version 8.3.0.175) was used for data analysis. Cell survival is expressed as a percentage of viable cells. IC50 concentrations were calculated by derivation of the best-fit line using a sigmoidal dose response model with technical triplicate data points.

[2] = test system: A549 (NSCLC) cells; assay: Anti-proliferative activity, Cell-Titre luminescent viability assay; conditions: Homo sapiens, 72 h exposure, Cell-Titre luminescent reagent
Summary of the method: (§2)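 Cells attached 24 h at 37° C., 5% CO2, then treated 72 h with compound at 0.3–100 μM or 0.1–30 μM. Viability read by Cell-Titre luminescence after 30 min reagent exposure, normalized to vehicle; EC50 from variable-slope sigmoidal nonlinear regression.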

[3] = test system: A2780 (ovarian) cells; assay: as above; conditions: Homo sapiens, 72 h exposure, Cell-Titre luminescent reagent
Summary of the method: as §2

[4] = test system: SK-N-SH neuroblastoma cells; assay: Cytotoxicity assay, MTS viability; conditions: Homo sapiens, 72 hours
Procedure: The ability of compounds of the disclosure to inhibit the proliferation of SK—N—SH neuroblastoma cells was assessed. The SK—N—SH cell line was maintained as a monolayer in Dulbeccos Modified Eagles medium (DMEM) supplemented with 10% foetal bovine serum (FBS) and grown at 37° C. in a humidified atmosphere with 5% CO2. For the cytotoxicity assay, SK—N—SH cells were seeded at a density of 2×10^3 cells per well in 96-well plates. The cells were treated with serial dilutions of the test compounds (1:2 starting concentration 100 µM) and viability measured after 72 hours using a standard MTS assay. Cell viability was normalised to control (vehicle alone) and dose response curves and EC50 values (Table 3) were determined using Graph Pad Prism 6.

[5] = test system: A2780 ovarian cancer cells; assay: Drug combination screen, 6x6 dose matrix, Bliss-independence synergy; set-up: key to Max. Synergy, Vinorelbine: Bliss synergy score; 0 = no synergy, negative = antagonism; highest in matrix; key to Total Synergy, Vinorelbine: sum of Bliss synergy scores across the dose matrix; conditions: 72 h (26*: 96-well plate format); for Max. Synergy, Paclitaxel / Total Synergy, Paclitaxel: combination with paclitaxel; for Max. Synergy, Paclitaxel / Max. Synergy, Vinorelbine: Bliss score; for Total Synergy, Paclitaxel / Total Synergy, Vinorelbine: sum of Bliss scores of the matrix; for Max. Synergy, Vinorelbine / Total Synergy, Vinorelbine: combination with vinorelbine
Procedure: as §1
The two drugs in each combination matrix were dispensed using a Tecan HP D300 Digital Dispenser. Assays were performed in triplicate for each drug combination (test compound/vinorelbine and test compound/paclitaxel combinations). Synergistic drug interactions were calculated from the averaged cell viability data using the methodology described below.
Synergistic drug interactions were determined for each pa1rw1se drug combination by applying the Bliss-independence model that assumes independence of drug mechanisms. Prior to the analysis, percent cell viability (CV) for combination data were converted to fractional cell growth inhibition (GI) by the formula: […]
The Bliss additivism model was used to calculate a predicted combined response C to two single agents with responses A and B (using GI values), as follows:
The final score for any combination was reported as the difference between the value predicted by the additive model and the experimentally observed value, normalised to 100. Using GI values the maximum possible synergy score is 100, with 0 indicating no synergy and negative indicating possible antagonism. Scores were also reported as a “Max synergy” score, which is the highest individual synergy score for each combination matrix, and a “Total synergy” score, which was obtained by summation of each individual synergy score for the matrix.
The single agent IC50 values for the test compounds and their synergy scores in combination with vinorelbine and paclitaxel are presented in Table 4. The data is listed as IC50 mean from technical triplicates for two independent experiments. The averaged IC50 concentrations for the single agents from both runs were then used to generate the 6×6 dose matrices in the synergy experiment. Synergy scores for each drug combination were calculated by the Bliss-independence model. The maximum synergy and total synergy scores for each combination in A2780 cells are listed.

[6] = 72 h drug exposure, Alamar Blue, 384-well (26*: 96-well plate format), read-out: Single-agent IC50
[7] = single agent, 96-well plate format, read-out: Dose matrix IC50 concentrations

| SMILES | IC50 [1, 6] [µM] | IC50 [2] [µM] | IC50 [3] [µM] | IC50 [4] [µM] | Max. Synergy, Paclitaxel [5] | Total Synergy, Paclitaxel [5] | Max. Synergy, Vinorelbine [5] | Total Synergy, Vinorelbine [5] | IC50 [1, 7] [µM] |
| --- | --- | --- | --- | --- | --- | --- | --- | --- | --- |
| CCC(C)c1ccc(NC(=O)C2CCN(S(=O)(=O)c3ccc4[nH]ccc4c3)CC2)cc1 (stereo not drawn) [Compound 6, 1-((1H-indol-5-yl)sulfonyl)-N-(4-(sec-butyl)phenyl)piperidine-4-carboxamide] | 12 | 24.9 | 15.1 | 5.66 | 6.78 | −46.04 | 42.36 | 250.66 | – |
| O=C(Nc1ccc(C(F)(F)F)cc1)C1CCN(S(=O)(=O)c2ccc3[nH]ccc3c2)CC1 [Compound 8, 1-((1H-indol-5-yl)sulfonyl)-N-(4-(trifluoromethyl)phenyl)piperidine-4-carboxamide] | 14.5 | 12.1 | 11.7 | 11.4 | 8.95 | −3.62 | 32.29 | 225.43 | – |
| CCC(C)c1ccc(NC(=O)C2CCN(S(=O)(=O)c3ccc4cc[nH]c4n3)CC2)cc1 (stereo not drawn) [Compound 65, 1-((1H-pyrrolo[2,3-b]pyridin-6-yl)sulfonyl)-N-(4-(sec-butyl)phenyl) piperidine-4-carboxamide] | – | 16.2 | 22.3 | 12.5 | – | – | – | – | – |
| N#Cc1ccc(NC(=O)c2ccn(S(=O)(=O)c3ccc4[nH]ccc4c3)c2)cc1 [Compound 67, 1-((1H-indol-5-yl)sulfonyl)-N-(4-cyanophenyl)-1H-pyrrole-3-carboxamide] | – | 14.1 | 6.23 | 15.7 | – | – | – | – | – |
| O=C(Nc1ccc(F)c(F)c1)c1ccn(S(=O)(=O)c2ccc3[nH]ccc3c2)c1 [Compound 68, 1-((1H-indol-5-yl)sulfonyl)-N-(3,4-difluorophenyl)-1H-pyrrole-3-carboxamide] | – | 16.6 | 8.53 | 19.1 | – | – | – | – | – |
| O=C(Nc1ccc(Cl)c(F)c1)c1ccn(S(=O)(=O)c2ccc3[nH]ccc3c2)c1 [Compound 69, 1-((1H-indol-5-yl)sulfonyl)-N-(4-chloro-3-fluorophenyl)-1H-pyrrole-3-carboxamide] | – | 13.3 | 8.66 | 17.3 | – | – | – | – | – |
| O=C(Nc1ccc(Cl)c(Cl)c1)c1ccn(S(=O)(=O)c2ccc3[nH]ccc3c2)c1 [Compound 71, 1-((1H-indol-5-yl)sulfonyl)-N-(3,4-dichlorophenyl)-1H-pyrrole-3-carboxamide] | – | 9.28 | 7.49 | 8.9 | – | – | – | – | – |
| O=C(Nc1ccc(C(F)(F)F)cc1)c1ccn(S(=O)(=O)c2ccc3[nH]ccc3c2)n1 [Compound 78, 1-((1H-indol-5-yl)sulfonyl)-N-(4-(trifluoromethyl)phenyl)-1H-pyrazole-3-carboxamide] | – | 18.4 | 5.44 | 21.6 | – | – | – | – | – |
| O=C(Nc1ccc(Cl)c(Cl)c1)c1ccn(S(=O)(=O)c2ccc3[nH]ccc3c2)n1 [Compound 83, 1-((1H-indol-5-yl)sulfonyl)-N-(3,4-dichlorophenyl)-1H-pyrazole-3-carboxamide] | – | 14.3 | 9.31 | 13.1 | – | – | – | – | – |
| CC(C)(C)c1ccc(S(=O)(=O)n2ccc(C(=O)NCCc3ccc(F)cc3)c2)cc1 [Compound 89, 1-((4-(tert-butyl)phenyl)sulfonyl)-N-(4-fluorophenethyl)-1H-pyrrole-3-carboxamide] | – | 6.7 | 2.8 | 15.6 | – | – | – | – | – |
| CC(C)(C)c1ccc(S(=O)(=O)n2ccc(C(=O)Nc3ccc(F)cc3)c2)cc1 [Compound 92, 1-((4-(tert-butyl)phenyl)sulfonyl)-N-(4-fluorophenyl)-1H-pyrrole-3-carboxamide] | – | 17.3 | 4 | 16.6 | – | – | – | – | – |
| CC(C)(C)c1ccc(S(=O)(=O)n2ccc(C(=O)Nc3ccc(C(F)(F)F)cc3)c2)cc1 [Compound 93, 1-((4-(tert-butyl)phenyl)sulfonyl)-N-(4-(trifluoromethyl)phenyl)-1H-pyrrole-3-carboxamide] | – | 12.8 | 3.2 | 18.2 | – | – | – | – | – |
| CCCc1ccc(NC(=O)c2ccn(S(=O)(=O)c3ccc4[nH]ccc4c3)c2)cc1 [Compound 96, 1-((1H-indol-5-yl)sulfonyl)-N-(4-propylphenyl)-1H-pyrrole-3-carboxamide] | – | 12.8 | 8.85 | 12.2 | – | – | – | – | – |
| CC(C)(C)c1ccc(NC(=O)c2ccn(S(=O)(=O)c3ccc4[nH]ccc4c3)c2)cc1 [Compound 100, 1-((1H-indol-5-yl)sulfonyl)-N-(4-(tert-butyl)phenyl)-1H-pyrrole-3-carboxamide] | – | 11 | 8.87 | 7.51 | – | – | – | – | – |
| CC(C)c1ccc(NC(=O)c2ccn(S(=O)(=O)c3ccc4[nH]ccc4c3)n2)cc1 [Compound 107, 1-((1H-indol-5-yl)sulfonyl)-N-(4-isopropylphenyl)-1H-pyrazole-3-carboxamide] | – | 6.58 | 8.11 | 6.22 | – | – | – | – | – |
| CC(C)c1ccc(NC(=O)c2ccn(S(=O)(=O)c3ccc4[nH]ccc4c3)n2)cc1F [Compound 108, 1-((1H-indol-5-yl)sulfonyl)-N-(3-fluoro-4-isopropylphenyl)-1H-pyrazole-3-carboxamide] | – | 4.09 | 8.71 | 9.71 | – | – | – | – | – |
| CCCc1ccc(NC(=O)c2ccn(S(=O)(=O)c3ccc4[nH]ccc4c3)n2)cc1 [Compound 109, 1-((1H-indol-5-yl)sulfonyl)-N-(4-propylphenyl)-1H-pyrazole-3-carboxamide] | – | 5.53 | 8.65 | 11 | – | – | – | – | – |
| CC(C)(C)c1ccc(NC(=O)c2ccn(S(=O)(=O)c3ccc4[nH]ccc4c3)n2)cc1 [Compound 113, 1-((1H-indol-5-yl)sulfonyl)-N-(4-(tert-butyl)phenyl)-1H-pyrazole-3-carboxamide] | – | 7.22 | 8.37 | 9.41 | – | – | – | – | – |
| CC(=O)O[C@H]1C(=O)[C@@]2(C)[C@H]([C@H](OC(=O)c3ccccc3)[C@]3(O)C[C@H](OC(=O)[C@H](O)[C@@H](NC(=O)c4ccccc4)c4ccccc4)C(C)=C1C3(C)C)[C@]1(OC(C)=O)CO[C@@H]1C[C@@H]2O [paclitaxel, reference compound] | – | – | – | – | – | – | – | – | 0.004 |
| CCC1=C[C@@H]2CN(C1)Cc1c([nH]c3ccccc13)[C@@](C(=O)OC)(c1cc3c(cc1OC)N(C)[C@H]1[C@@](O)(C(=O)OC)[C@H](OC(C)=O)[C@]4(CC)C=CCN5CC[C@]31[C@@H]54)C2 [vinorelbine, reference compound] | – | – | – | – | – | – | – | – | 0.004 |
